# What was measured:
# [1] = biological target: T1, Nuclear factor NF-kappa-B complex (Homo sapiens) (UniProt Q00653+P19838+Q04206); experiment: Activation of NF-KappaB (unknown origin) expressed in HEK293T cells assessed as fold change at 1 uM incubated for 12 hrs by Renilla luciferase assay; format: cell-based; conditions: filed as activator
# [2] = biological target: T1, Nuclear factor NF-kappa-B complex (Homo sapiens); experiment: Activation of NF-KappaB (unknown origin) expressed in HEK293T cells assessed as fold change at 10 nM incubated for 12 hrs by Renilla luciferase assay; format: cell-based; conditions: filed as activator
# [3] = biological target: T1, Nuclear factor NF-kappa-B complex (Homo sapiens); experiment: Activation of NF-KappaB (unknown origin) expressed in HEK293T cells assessed as fold change at 1000 nM incubated for 12 hrs by Renilla luciferase assay; format: cell-based; conditions: filed as activator
# [4] = biological target: T1, Nuclear factor NF-kappa-B complex (Homo sapiens); experiment: Activation of NF-KappaB (unknown origin) expressed in HEK293T cells assessed as fold change at 10 ng incubated for 12 hrs by Renilla luciferase assay; format: cell-based; conditions: filed as activator
# [5] = biological target: T1, Nuclear factor NF-kappa-B complex (Homo sapiens); experiment: Activation of NF-KappaB (unknown origin) expressed in HEK293T cells assessed as fold change at 100 nM incubated for 12 hrs by Renilla luciferase assay; format: cell-based; conditions: filed as activator
# [6] = species: Cavia porcellus; experiment: Induction of delayed type hypersensitivity in ABA-BSA immunized Hartley Guinea pigs assessed as reduction in skin lesions at 100 ug measured for 24 hrs; format: functional; conditions: dose 100 µg
# T1 sequence (P19838 whole entry, looked up): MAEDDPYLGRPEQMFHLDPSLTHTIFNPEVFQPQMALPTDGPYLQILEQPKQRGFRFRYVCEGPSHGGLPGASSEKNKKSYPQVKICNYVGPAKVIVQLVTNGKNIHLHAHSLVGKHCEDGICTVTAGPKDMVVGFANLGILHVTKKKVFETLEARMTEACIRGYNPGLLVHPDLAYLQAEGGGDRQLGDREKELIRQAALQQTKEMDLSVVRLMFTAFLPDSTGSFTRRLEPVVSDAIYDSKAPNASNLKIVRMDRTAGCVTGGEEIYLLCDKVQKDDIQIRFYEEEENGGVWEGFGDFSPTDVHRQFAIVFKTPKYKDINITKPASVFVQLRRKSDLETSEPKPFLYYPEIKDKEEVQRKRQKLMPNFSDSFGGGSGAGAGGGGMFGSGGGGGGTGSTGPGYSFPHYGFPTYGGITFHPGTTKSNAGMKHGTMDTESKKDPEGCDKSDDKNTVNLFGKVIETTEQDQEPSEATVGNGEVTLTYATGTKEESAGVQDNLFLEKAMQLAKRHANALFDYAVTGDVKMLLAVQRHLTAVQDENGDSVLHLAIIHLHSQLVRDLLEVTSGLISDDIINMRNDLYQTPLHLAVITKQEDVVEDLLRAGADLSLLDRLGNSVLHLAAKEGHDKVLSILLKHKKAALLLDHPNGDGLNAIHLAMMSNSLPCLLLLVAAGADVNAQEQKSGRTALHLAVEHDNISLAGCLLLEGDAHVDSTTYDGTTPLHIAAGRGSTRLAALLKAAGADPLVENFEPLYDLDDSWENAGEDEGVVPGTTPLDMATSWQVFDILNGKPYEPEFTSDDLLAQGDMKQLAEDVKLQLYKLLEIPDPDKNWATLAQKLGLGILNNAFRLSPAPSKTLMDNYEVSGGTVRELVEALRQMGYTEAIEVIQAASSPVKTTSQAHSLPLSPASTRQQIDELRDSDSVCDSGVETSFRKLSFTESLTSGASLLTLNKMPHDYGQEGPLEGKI
# T1 sequence (Q00653 whole entry, looked up): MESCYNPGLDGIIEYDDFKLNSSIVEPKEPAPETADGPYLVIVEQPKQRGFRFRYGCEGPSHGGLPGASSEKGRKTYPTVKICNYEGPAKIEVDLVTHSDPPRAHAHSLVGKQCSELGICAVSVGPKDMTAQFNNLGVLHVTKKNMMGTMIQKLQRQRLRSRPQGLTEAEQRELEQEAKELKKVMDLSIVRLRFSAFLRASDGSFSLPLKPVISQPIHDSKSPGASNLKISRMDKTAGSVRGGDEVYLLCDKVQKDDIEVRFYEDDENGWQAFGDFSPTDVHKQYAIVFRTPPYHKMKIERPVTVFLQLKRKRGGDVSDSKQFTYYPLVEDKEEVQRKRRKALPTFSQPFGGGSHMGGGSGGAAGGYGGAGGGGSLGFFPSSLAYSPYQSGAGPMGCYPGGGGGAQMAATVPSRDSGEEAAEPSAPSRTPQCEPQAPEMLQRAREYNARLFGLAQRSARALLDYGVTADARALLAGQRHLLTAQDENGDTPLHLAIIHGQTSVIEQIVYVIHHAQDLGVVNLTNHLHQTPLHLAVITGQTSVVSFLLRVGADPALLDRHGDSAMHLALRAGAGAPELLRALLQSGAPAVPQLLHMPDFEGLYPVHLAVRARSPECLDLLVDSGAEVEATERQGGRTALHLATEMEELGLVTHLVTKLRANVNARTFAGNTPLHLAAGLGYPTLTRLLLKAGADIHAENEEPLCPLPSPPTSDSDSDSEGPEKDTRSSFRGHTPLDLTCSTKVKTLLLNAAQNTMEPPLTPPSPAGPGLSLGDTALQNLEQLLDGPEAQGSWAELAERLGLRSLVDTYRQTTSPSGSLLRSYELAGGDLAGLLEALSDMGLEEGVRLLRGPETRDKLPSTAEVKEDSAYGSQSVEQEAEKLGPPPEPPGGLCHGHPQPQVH
# T1 sequence (Q04206 whole entry, looked up): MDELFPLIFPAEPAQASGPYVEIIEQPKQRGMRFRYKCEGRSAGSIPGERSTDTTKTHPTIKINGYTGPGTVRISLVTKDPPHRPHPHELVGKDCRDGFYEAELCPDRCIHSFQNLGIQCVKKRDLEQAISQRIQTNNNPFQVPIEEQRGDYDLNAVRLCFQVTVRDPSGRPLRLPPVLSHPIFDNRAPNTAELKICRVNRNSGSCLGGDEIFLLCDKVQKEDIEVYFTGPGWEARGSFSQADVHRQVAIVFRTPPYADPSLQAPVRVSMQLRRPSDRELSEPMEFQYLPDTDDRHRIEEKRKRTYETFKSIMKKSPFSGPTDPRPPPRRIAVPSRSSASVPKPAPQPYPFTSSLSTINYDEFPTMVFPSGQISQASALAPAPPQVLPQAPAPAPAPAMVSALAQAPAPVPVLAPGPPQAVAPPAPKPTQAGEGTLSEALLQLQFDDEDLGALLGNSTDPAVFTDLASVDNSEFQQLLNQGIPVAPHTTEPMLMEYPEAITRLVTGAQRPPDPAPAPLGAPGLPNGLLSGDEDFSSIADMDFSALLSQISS
Structure (SMILES),fold change (FC) [1],fold change (FC) [2],fold change (FC) [3],fold change (FC) [4],fold change (FC) [5],other results
CCCCCCCCCCCO[C@@H]1O[C@H](CO)[C@@H](O)[C@H](O[C@H](C)C(=O)N[C@@H](C)C(=O)N[C@H](CCC(=O)O)C(N)=O)[C@H]1NC(=O)CO,4.85,,,,,
CCCCCCNC(=O)[C@@H](CCC(=O)O)NC(=O)[C@H](C)NC(=O)[C@@H](C)O[C@H]1[C@H](O)[C@@H](CO)O[C@@H](O)[C@@H]1NC(C)=O,,1.1,2.8,1.1,1.15,
CCOC(=O)[C@@H](CCC(=O)O)NC(=O)[C@H](C)NC(=O)[C@@H](C)O[C@H]1[C@H](O)[C@@H](CO)O[C@@H](O)[C@@H]1NC(C)=O,,4,6.6,4,6.3,
CO[C@@H]1O[C@H](CO)[C@@H](O)[C@H](O[C@H](C)C(=O)N[C@@H](C)C(=O)N[C@H](CCC(=O)O)C(N)=O)[C@H]1NC(=O)Cc1ccccc1,4.45,,,,,
CC(=O)N[C@@H]1[C@@H](O[C@H](C)C(=O)N[C@@H](C)C(=O)N[C@H](CCC(=O)O)C(=O)OC2CCCCC2)[C@H](O)[C@@H](CO)O[C@H]1O,,4.6,6.55,4.6,6.8,
C[C@H](NC(=O)[C@@H](C)O[C@@H]1[C@@H](N)[C@H](O)O[C@H](CO)[C@H]1O)C(=O)N[C@H](CCC(=O)O)C(N)=O,4.6,,,,,
CCCCNC(=O)[C@@H](CCC(=O)O)NC(=O)[C@H](C)NC(=O)[C@@H](C)O[C@H]1[C@H](O)[C@@H](CO)O[C@@H](O)[C@@H]1NC(C)=O,,1.1,2.1,1.1,1.1,
CO[C@@H]1O[C@H](CO)[C@@H](O)[C@H](O[C@H](C)C(=O)N[C@@H](C)C(=O)N[C@H](CCC(=O)O)C(N)=O)[C@H]1NC(=O)Cc1c(F)c(F)c(F)c(F)c1F,5,,,,,
C[C@H](NC(=O)[C@@H](C)O[C@H]1[C@H](O)[C@@H](CO)O[C@@H](O)[C@@H]1NC(=O)Cc1c(F)c(F)c(F)c(F)c1F)C(=O)N[C@H](CCC(=O)O)C(N)=O,5.4,,,,,
CCCCCCCCCCCCCCCCCC(=O)N[C@@H]1[C@@H](O[C@H](C)C(=O)N[C@H](C(=O)N[C@H](CCC(=O)O)C(N)=O)C(C)C)[C@H](O)[C@@H](CN)O[C@H]1O,,,,,,Activity [6]: 10.5 mm
CO[C@@H]1O[C@H](CO)[C@@H](O)[C@H](O[C@H](C)C(=O)N[C@@H](C)C(=O)N[C@H](CCC(=O)O)C(N)=O)[C@H]1NC(=O)CO,5.9,,,,,
CCCCCCCCCCCCOC(=O)[C@@H](CCC(=O)O)NC(=O)[C@H](C)NC(=O)[C@@H](C)O[C@H]1[C@H](O)[C@@H](CO)O[C@@H](O)[C@@H]1NC(C)=O,,7.5,6.3,7.5,6.5,
CC(=O)N[C@@H]1[C@@H](O[C@H](C)C(=O)N[C@@H](C)C(=O)N[C@H](CC(=O)O)C(N)=O)[C@H](O)[C@@H](CO)O[C@H]1O,,1.85,1.9,,1.87,
CC(=O)N[C@@H]1[C@@H](O[C@H](C)C(=O)N[C@@H](C)C(=O)N[C@H](CCC(=O)O)C(=O)O)[C@H](O)[C@@H](CO)O[C@H]1O,,2.5,6.1,2.5,4.5,
CCCCC(=O)N[C@@H]1[C@@H](O[C@H](C)C(=O)N[C@@H](C)C(=O)N[C@H](CCC(=O)O)C(N)=O)[C@H](O)[C@@H](CO)O[C@H]1O,4.5,,,,,
C[C@H](NC(=O)[C@@H](C)O[C@H]1[C@H](O)[C@@H](CO)O[C@@H](O)[C@@H]1NC(=O)CO)C(=O)N[C@H](CCC(=O)O)C(N)=O,4.5,,,,,
C[C@H](NC(=O)CO[C@H]1[C@H](O)[C@@H](CO)O[C@@H](O)[C@@H]1NC(=O)CO)C(=O)N[C@H](CCC(=O)O)C(N)=O,5.8,,,,,
CC(=O)N[C@@H]1[C@@H](O[C@H](C)C(=O)N[C@@H](C)C(=O)N[C@H](CCC(=O)O)C(=O)OCCCl)[C@H](O)[C@@H](CO)O[C@H]1O,,4.2,6.55,4.2,6.6,
C[C@H](NC(=O)[C@@H](C)O[C@H]1[C@H](O)[C@@H](CO)O[C@@H](O)[C@@H]1NC(=O)CN)C(=O)N[C@H](CCC(=O)O)C(N)=O,4.5,,,,,
COCC(=O)N[C@H]1[C@H](OC)O[C@H](CO)[C@@H](O)[C@@H]1O[C@H](C)C(=O)N[C@@H](C)C(=O)N[C@H](CCC(=O)O)C(N)=O,5.55,,,,,
CCCCCO[C@@H]1O[C@H](CO)[C@@H](O)[C@H](O[C@H](C)C(=O)N[C@@H](C)C(=O)N[C@H](CCC(=O)O)C(N)=O)[C@H]1NC(=O)CO,4.5,,,,,

# Reference: ChEMBL document CHEMBL5550132, “Structure-activity relationship in NOD2 agonistic muramyl dipeptides” (Eur J Med Chem, 2024)
